Values after ≈ are worked out from the molar mass of the structure shown.
Assay: Water solubility assay
Type: physicochemical
Details: for solubility thermodynamic at 24 h: thermodynamic from solid
[1] = 50 mM TEAA buffer, pH 7.9, aqueous buffer

| solubility thermodynamic at 24 h [1] [µg/mL] | solubility thermodynamic at 24 h (ddH2O, water) [µg/mL] | times more water-soluble than thiostrepton, in 50 mM TEAA (pH 7.9) (ratio of solubility to that of thiostrepton in 50 mM TEAA pH 7.9) [×] | times more water-soluble than thiostrepton, in ddH2O (ratio of solubility to that of thiostrepton in ddH2O) [×] | SMILES |
| --- | --- | --- | --- | --- |
| 5 ± 0.2 (≈ 3 µM) | 6.4 ± 0.1 (≈ 3.84 µM) |  |  | C=C(NC(=O)C(=C)NC(=O)c1csc(C2=N[C@@H]3c4csc(n4)[C@H]4NC(=O)c5csc(n5)[C@H]([C@](C)(O)[C@@H](C)O)NC(=O)[C@H]5CSC(=N5)/C(=C/C)NC(=O)[C@H]([C@@H](C)O)NC(=O)c5csc(n5)[C@]3(CC2)NC(=O)[C@H](C)NC(=O)C(=C)NC(=O)[C@H](C)NC(=O)[C@H]([C@@H](C)CC)N[C@@H]2C=Cc3c([C@H](C)O)cc(nc3[C@H]2O)C(=O)O[C@@H]4C)n1)C(N)=O [Thiostrepton, thiostrepton, reference compound] |
| 422 ± 8.5 (≈ 240 µM) | 170 ± 2.6 (≈ 96.6 µM) | 84 | 27 | C=C1NC(=O)[C@H](C)NC(=O)[C@H]([C@@H](C)CC)N[C@@H]2C=Cc3c([C@H](C)O)cc(nc3[C@H]2O)C(=O)O[C@H](C)[C@@H]2NC(=O)c3csc(n3)[C@H]([C@](C)(O)[C@@H](C)O)NC(=O)[C@H]3CSC(=N3)/C(=C/C)NC(=O)[C@H]([C@@H](C)O)NC(=O)c3csc(n3)[C@]3(CCC(c4nc(C(=O)NC(CB(O)O)C(=O)NC(CB(O)O)C(N)=O)cs4)=N[C@@H]3c3csc2n3)NC(=O)[C@H](C)NC1=O (stereo partly drawn) [compound 3] |

From PMC7898795 (Angewandte Chemie (International Ed. in English), 2020)
